Data on ten molecules can be found in US20140303164A1, “THERAPEUTIC COMPOUNDS” (Gilead Sciences, Inc., priority 2013, published 2014).

As a reminder, the CC50 is the concentration that lowers cell viability or growth by half. Lower therefore signals harm at low concentration. As usually defined, the inhibition is the percentage by which the read-out fell short of the control.

Data set [1] in a line: Test B: Cytotoxicity Assay. The class given is cell-based. Particulars: human, uninfected MT-4 cells, same protocol as Test A. Summed up: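 Uninfected MT-4 cells (2000 per well) incubated with diluted compound at 37° C. for 5 days, following the antiviral protocol without HIV-IIIb.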
The subject of a further data set is HIV-IIIb. The data set is described as follows: Test A: Antiviral Assay in MT4 Cells. The class given is cell-based, HIV-1. Particulars: Human immunodeficiency virus 1, IIIB, MT4, 120 h; for inhibition at 0.2 µM: read-out: % inhibition at 0.2 μM; for inhibition at 2 µM: read-out: % inhibition at 2 μM. How it is done: Test A: Antiviral Assay in MT4 Cells
MT-4 cells were next mixed with HIV-IIIb at an m.o.i of 0.003 for 1 hour, after which time 35 μL of virus/cell mixture (2000 cells) was immediately added to each well containing 40 μL of diluted compound. The plates were then incubated at 37° C. for 5 days. […] Cell lysis was carried out by incubating at room temperature for 10 min and then chemiluminescence was read.

For `CN(C)c1nn(CC(=O)N[C@@H](Cc2cc(F)cc(F)c2)c2nc(C#CC(C)(C)O)ccc2-c2ccc(Cl)c3c(NS(C)(=O)=O)nn(C)c23)c2c1[C@H]1C[C@H]1C2(F)F` [Compound 161, N—((S)-1-(3-(4-chloro-1-methyl-3-(methylsulfonamido)-1H-indazol-7-yl)-6-(3-hydroxy-3-methylbut-1-yn-1-yl)pyridin-2-yl)-2-(3,5-difluorophenyl)ethyl)-2-((3b-S,4aR)-3-(dimethylamino)-5,5-difluoro-3b,4,4a,5-tetrahydro-1H-cyclopropa[3,4]cyclopenta[1,2-c]pyrazol-1-yl)acetamide], in data set [1], half-maximal cytotoxicity (CC50 at 5 days) was put at 21.8 µM. In the data set with HIV-IIIb, the inhibition at 0.2 µM turned out to be 84% and the inhibition at 2 µM amounted to 84%.
Molecule `Cn1nc(NS(C)(=O)=O)c2cccc(-c3ccc(C#CC(C)(C)O)nc3[C@H](Cc3cc(F)cc(F)c3)NC(=O)Cn3nc(C(F)F)c4c3C3CC3CC4)c21` (stereo partly drawn) [Compound 43, 2-(3-(difluoromethyl)-5,5a,6,6a-tetrahydrocyclopropa[g]indazol-1(4H)-yl)-N—((S)-2-(3,5-difluorophenyl)-1-(6-(3-hydroxy-3-methylbut-1-yn-1-yl)-3-(1-methyl-3-(methylsulfonamido)-1H-indazol-7-yl)pyridin-2-yl)ethyl)acetamide] registered a cytotoxic concentration (CC50) at 5 days in data set [1] of 15.4 µM. In the data set with HIV-IIIb, the inhibition at 0.2 µM turned out to be 100% and the inhibition at 2 µM came to 100%.
The molecule `Cn1nc(NC(=O)c2ccno2)c2c(Cl)ccc(-c3ccc(C#CC(C)(C)O)nc3[C@H](Cc3cc(F)cc(F)c3)NC(=O)Cn3nc(C(F)F)c4c3C(F)(F)[C@@H]3C[C@H]43)c21` [Compound 87, N-(4-chloro-7-(2-((S)-1-(2-((3b-S,4aR)-3-(difluoromethyl)-5,5-difluoro-3b,4,4a,5-tetrahydro-1H-cyclopropa[3,4]cyclopenta[1,2-c]pyrazol-1-yl)acetamido)-2-(3,5-difluorophenyl)ethyl)-6-(3-hydroxy-3-methylbut-1-yn-1-yl)pyridin-3-yl)-1-methyl-1H-indazol-3-yl)isoxazole-5-carboxamide] displayed a CC50 at 5 days in data set [1] of 6.8 µM. In the data set with HIV-IIIb, the inhibition at 0.2 µM came to 95% and the inhibition at 2 µM is 96%.
The corresponding values for `COC(=O)Nc1nn(C)c2c(-c3ccc(C#CC(C)(C)O)nc3[C@H](Cc3cc(F)cc(F)c3)NC(=O)Cn3nc(C(F)F)c4c3C(F)(F)[C@@H]3C[C@H]43)ccc(Cl)c12` [Compound 90D, methyl (4-chloro-7-(2-((S)-1-(2-((3b-S,4aR)-3-(difluoromethyl)-5,5-difluoro-3b,4,4a,5-tetrahydro-1H-cyclopropa[3,4]cyclopenta[1,2-c]pyrazol-1-yl)acetamido)-2-(3,5-difluorophenyl)ethyl)-6-(3-hydroxy-3-methylbut-1-yn-1-yl)pyridin-3-yl)-1-methyl-1H-indazol-3-yl)carbamate] are 7.62 µM, 97% and 97%.
With `Cn1nc(NS(C)(=O)=O)c2c(Cl)ccc(-c3cc(-c4ccccc4Cl)cnc3[C@H](Cc3cc(F)cc(F)c3)NC(=O)Cn3nc(C(F)F)c4c3C(F)(F)[C@@H]3C[C@H]43)c21` [Compound 181C, N—((S)-1-(3-(4-chloro-1-methyl-3-(methylsulfonamido)-1H-indazol-7-yl)-5-(2-chlorophenyl)pyridin-2-yl)-2-(3,5-difluorophenyl)ethyl)-2-((3b-S,4aR)-3-(difluoromethyl)-5,5-difluoro-3b,4,4a,5-tetrahydro-1H-cyclopropa[3,4]cyclopenta[1,2-c]pyrazol-1-yl)acetamide], the CC50 at 5 days in data set [1] was over 53.2 µM. Also, in the data set with HIV-IIIb, the inhibition at 0.2 µM was determined as 100% and the inhibition at 2 µM was determined as 100%.
With `Cn1nc(N)c2cccc(-c3ccc(C#CC(C)(C)O)nc3[C@H](Cc3cc(F)cc(F)c3)NC(=O)Cn3nc(C(F)F)c4c3C(F)(F)[C@@H]3C[C@H]43)c21` [Compound 32, N—((S)-1-(3-(3-amino-1-methyl-1H-indazol-7-yl)-6-(3-hydroxy-3-methylbut-1-yn-1-yl)pyridin-2-yl)-2-(3,5-difluorophenyl)ethyl)-2-((3b-S,4aR)-3-(difluoromethyl)-5,5-difluoro-3b,4,4a,5-tetrahydro-1H-cyclopropa[3,4]cyclopenta[1,2-c]pyrazol-1-yl)acetamide], the CC50 at 5 days in data set [1] was determined as 9.18 µM. In the data set with HIV-IIIb, the inhibition at 0.2 µM stood at 84% and the inhibition at 2 µM is 84%.
Regarding `Cn1nc(N)c2c(Cl)ccc(-c3ccc(C#CC(C)(C)O)nc3[C@H](Cc3cc(F)cc(F)c3)NC(=O)Cn3nc(C(F)(F)F)c4c3C(F)(F)[C@@H]3C[C@H]43)c21` [Compound 55C, N—((S)-1-(3-(3-amino-4-chloro-1-methyl-1H-indazol-7-yl)-6-(3-hydroxy-3-methylbut-1-yn-1-yl)pyridin-2-yl)-2-(3,5-difluorophenyl)ethyl)-2-((3b-S,4aR)-5,5-difluoro-3-(trifluoromethyl)-3b,4,4a,5-tetrahydro-1H-cyclopropa[3,4]cyclopenta[1,2-c]pyrazol-1-yl)acetamide], the CC50 at 5 days in data set [1] was determined as 9.56 µM. In addition, in the data set on HIV-IIIb, the inhibition at 0.2 µM was 92% and the inhibition at 2 µM came out at 92%.
Turning to `Cn1nc(NS(C)(=O)=O)c2cccc(-c3ccc(C#CC(C)(C)N)nc3[C@H](Cc3cc(F)cc(F)c3)NC(=O)Cn3nc(C(F)(F)F)c4c3C(F)(F)[C@@H]3C[C@H]43)c21` [Compound 104, N—((S)-1-(6-(3-amino-3-methylbut-1-yn-1-yl)-3-(1-methyl-3-(methylsulfonamido)-1H-indazol-7-yl)pyridin-2-yl)-2-(3,5-difluorophenyl)ethyl)-2-((3bS,4aR)-5,5-difluoro-3-(trifluoromethyl)-3b,4,4a,5-tetrahydro-1H-cyclopropa[3,4]cyclopenta[1,2-c]pyrazol-1-yl)acetamide], the CC50 at 5 days in data set [1] worked out at 7.46 µM. Moreover, in the data set with HIV-IIIb, the inhibition at 0.2 µM turned out to be 100% and the inhibition at 2 µM was 100%.
Take `Cn1nc(N)c2c(Cl)ccc(-c3ccc(C#CC(C)(C)O)nc3[C@H](Cc3cc(F)cc(F)c3)NC(=O)Cn3nc(C(F)F)c4c3C(F)(F)[C@@H]3C[C@H]43)c21` [Compound 57, N—((S)-1-(3-(3-amino-4-chloro-1-methyl-1H-indazol-7-yl)-6-(3-hydroxy-3-methylbut-1-yn-1-yl)pyridin-2-yl)-2-(3,5-difluorophenyl)ethyl)-2-((3bS,4aR)-3-(difluoromethyl)-5,5-difluoro-3b,4,4a,5-tetrahydro-1H-cyclopropa[3,4]cyclopenta[1,2-c]pyrazol-1-yl)acetamide]: the midpoint of cytotoxicity in data set [1], the CC50 at 5 days, lay at 7.63 µM. In the data set with HIV-IIIb, the inhibition at 0.2 µM came to 93% and the inhibition at 2 µM came out at 93%.
`CC(C)C(=O)Nc1nn(C)c2c(-c3ccc(C#CC(C)(C)O)nc3[C@H](Cc3cc(F)cc(F)c3)NC(=O)Cn3nc(C(F)F)c4c3C(F)(F)[C@@H]3C[C@H]43)ccc(Cl)c12` [Compound 96, N-(4-chloro-7-(2-((S)-1-(2-((3b-S,4aR)-3-(difluoromethyl)-5,5-difluoro-3b,4,4a,5-tetrahydro-1H-cyclopropa[3,4]cyclopenta[1,2-c]pyrazol-1-yl)acetamido)-2-(3,5-difluorophenyl)ethyl)-6-(3-hydroxy-3-methylbut-1-yn-1-yl)pyridin-3-yl)-1-methyl-1H-indazol-3-yl)isobutyramide] had a CC50 at 5 days in data set [1] of 7 µM. Also, in the data set with HIV-IIIb, the inhibition at 0.2 µM is 100% and the inhibition at 2 µM amounted to 100%.
